Assay results as given in ChEMBL document CHEMBL1201862, “PubChem BioAssay data set” (2004).
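Briefly, cells in 96-well plates were exposed to five compound concentrations for 48 h, and endpoints were estimated by linear interpolation. GI50: concentration for 50% inhibition of growth.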 Calls of active or inactive are those of the source. Cut-off read from the data, not from the text of the source: active = GI50 up to about 1.1 µM and inactive = higher. Square brackets hold non-standard residues; d marks the D form. Peptide text beside a SMILES is read from it. * marks the point of attachment. X26 = COC1=CC(=O)N(C(=O)[C@@H](O*)C(C)C)[C@H]1Cc1ccccc1; NMeL = CN[C@@H](CC(C)C)C(=O)O; Hexanoyl = CCCCCC(=O)*

Assays:
Test in all cases: NCI-60 cell line screen, 48 h
[1] = system: 786-0
[2] = system: A549
[3] = system: ACHN
[4] = system: COLO 205
[5] = system: HCT-116
[6] = system: HOP-62
[7] = system: HOP-92
[8] = system: HT-29
[9] = system: Hs-578T
[10] = system: K562
[11] = system: KM12
[12] = system: M14
[13] = system: MOLT-4
[14] = system: NCI/ADR-RES
[15] = system: OVCAR-4
[16] = system: PC-3
[17] = system: SF-268
[18] = system: SK-MEL-28
[19] = system: SK-MEL-5

Measured: GI50

[N-]=[N+]=Nc1c(-c2ccccc2)c(=O)n(-c2ccccc2)c2ccccc12
inactive: [1] > 100 µM | [2] > 100 µM | [3] 49.4 µM | [4] 62.1 µM | [5] 34.7 µM | [6] 99.5 µM | [7] 49.4 µM | [8] 41.7 µM | [9] 56.9 µM | [10] > 100 µM | [11] 67.6 µM | [12] 62.2 µM | [13] 75.7 µM | [14] 63 µM | [15] 64 µM | [16] 32.4 µM | [17] 13.2 µM | [18] 94.6 µM

CC1CN=C(Nc2ccc(F)cc2F)S1 (stereo unspecified)
inactive: [1] > 100 µM | [2] > 100 µM | [3] > 100 µM | [4] > 100 µM | [5] > 100 µM | [6] > 100 µM | [7] 15.6 µM | [9] > 100 µM | [10] > 100 µM | [11] > 100 µM | [13] > 100 µM | [14] > 100 µM | [15] > 100 µM | [16] > 100 µM | [17] > 100 µM | [18] > 100 µM | [19] > 100 µM

CSC(SC)=C(C(=O)O)P(=O)(O)O
inactive: [1] > 100 µM | [2] > 100 µM | [3] > 100 µM | [4] > 100 µM | [5] > 100 µM | [6] > 100 µM | [7] > 100 µM | [8] > 100 µM | [9] > 100 µM | [11] > 100 µM | [12] > 100 µM | [13] > 100 µM | [14] > 100 µM | [15] > 100 µM | [16] > 100 µM | [17] > 100 µM | [18] > 100 µM | [19] > 100 µM

CCCCCC(=O)N[C@H](C(=O)N[C@H](C(=O)N(C)[C@@H](CC(C)C)C(=O)N1CCC[C@H]1C(=O)N1CCC[C@H]1C(=O)O[C@H](C(=O)N1C(=O)C=C(OC)[C@@H]1Cc1ccccc1)C(C)C)C(C)C)C(C)C (Hexanoyl-VV[NMeL]PP-X26)
inactive: [1] > 91 µM | [2] 18.1 µM | [3] > 100 µM | [4] 32.5 µM | [5] 54.7 µM | [6] > 100 µM | [7] 36.1 µM | [8] > 100 µM | [9] > 88.3 µM | [10] 10.3 µM | [11] > 74.3 µM | [12] > 33.3 µM | [13] 1.9 µM | [14] > 100 µM | [15] > 76.9 µM | [16] 27.2 µM | [17] > 41.9 µM | [18] > 100 µM

Nc1ccccc1CC(O)C(=O)O (stereo unspecified)
inactive: [1] > 100 µM | [2] > 100 µM | [3] > 100 µM | [4] > 100 µM | [5] > 100 µM | [6] > 100 µM | [7] > 100 µM | [8] > 100 µM | [9] > 100 µM | [10] > 100 µM | [11] > 100 µM | [12] > 100 µM | [13] > 100 µM | [14] > 100 µM | [16] > 100 µM | [17] > 100 µM | [18] > 100 µM | [19] > 100 µM

COC(=O)/C(=C(/C)c1ccco1)P(=O)(OC)OC
inactive: [1] > 100 µM | [2] > 100 µM | [3] > 100 µM | [4] > 100 µM | [5] > 100 µM | [6] > 100 µM | [7] > 100 µM | [8] > 100 µM | [9] > 100 µM | [11] > 100 µM | [12] > 100 µM | [13] > 100 µM | [14] > 100 µM | [15] > 100 µM | [16] > 100 µM | [17] > 100 µM | [18] > 100 µM | [19] > 100 µM

CCOC(=O)NC(Nc1ccc(OC(F)(F)F)cc1)(C(F)(F)F)C(F)(F)F
inactive: [1] > 100 µM | [2] > 100 µM | [3] > 100 µM | [4] > 100 µM | [5] > 100 µM | [6] > 100 µM | [7] > 100 µM | [8] > 100 µM | [9] > 100 µM | [10] > 100 µM | [11] > 100 µM | [12] > 100 µM | [13] > 100 µM | [14] > 100 µM | [16] > 100 µM | [17] > 100 µM | [18] > 100 µM | [19] > 100 µM

COc1ccc(-c2cc(-c3ccccc3)n(C3OCC(OC(C)=O)C(OC(C)=O)C3OC(C)=O)c(=S)c2C#N)cc1 (stereo unspecified)
inactive: [2] > 100 µM | [3] 37.4 µM | [4] > 100 µM | [5] 86.5 µM | [6] > 100 µM | [7] 16 µM | [8] > 100 µM | [9] 15.3 µM | [10] > 100 µM | [11] 85.3 µM | [12] > 100 µM | [13] > 100 µM | [14] > 100 µM | [15] > 100 µM | [16] > 100 µM | [17] > 100 µM | [18] > 100 µM | [19] > 100 µM

NC1CNC(=O)c2cscc21 (stereo unspecified)
inactive: [1] > 100 µM | [2] > 100 µM | [3] > 100 µM | [4] > 100 µM | [5] > 100 µM | [7] > 100 µM | [8] > 100 µM | [9] > 100 µM | [10] > 100 µM | [11] > 100 µM | [12] > 100 µM | [13] > 100 µM | [14] 3.01 µM | [15] > 100 µM | [16] 53.2 µM | [17] > 100 µM | [18] > 100 µM | [19] > 100 µM

N#Cc1c(N)n(-c2nc3ccccc3s2)c(=O)c2cc([N+](=O)[O-])ccc12
inactive: [1] 21.7 µM | [2] 14.6 µM | [3] 20.3 µM | [5] 4.44 µM | [6] 7.08 µM | [7] 14.1 µM | [8] 3.5 µM | [9] 9.16 µM | [10] 15.7 µM | [11] 19.7 µM | [12] 23.2 µM | [13] 5.46 µM | [14] 6.46 µM | [15] 24.3 µM | [16] 5.51 µM | [17] 15 µM | [18] 26.7 µM

CCOc1ccccc1/C=C1\NC(=O)N(/C=C2\C(=O)Oc3ccccc3C2=O)C1=O
inactive: [1] 50.9 µM | [2] 42.6 µM | [3] 50.6 µM | [4] 47.4 µM | [5] 39.1 µM | [6] 53.1 µM | [7] 21 µM | [8] 65.5 µM | [9] 46.7 µM | [11] 43 µM | [12] 51.4 µM | [13] 26.7 µM | [14] 46 µM | [15] 44.2 µM | [16] 42.5 µM | [17] > 100 µM | [18] 62.4 µM | [19] 23.9 µM

[O-][Cl+3]([O-])([O-])[O-].[O-][Cl+3]([O-])([O-])[O-].c1ccn2c(N3CCCC3)[n+]3c4ccccc4n4c(N5CCCC5)[n+]5ccccc5c4c3c2c1
inactive: [1] 27.6 µM | [2] > 100 µM | [3] > 100 µM | [4] 20 µM | [5] > 100 µM | [7] 73.1 µM | [9] 33.4 µM | [10] 35.8 µM | [11] 40.3 µM | [12] > 100 µM | [13] > 100 µM | [14] > 100 µM | [15] > 100 µM | [16] 46.5 µM | [17] 15.3 µM | [18] > 100 µM | [19] 22.2 µM

CN(C)/C=N/c1c2c(nc3ccccc13)CCCC2
inactive: [1] > 100 µM | [2] 57.9 µM | [3] > 100 µM | [4] 70.8 µM | [5] 39.1 µM | [6] > 100 µM | [7] 33.1 µM | [8] 36.7 µM | [9] > 100 µM | [10] 32 µM | [12] > 100 µM | [13] 59.8 µM | [14] 37.3 µM | [15] 75.2 µM | [16] 38.5 µM | [17] > 100 µM | [18] 44.2 µM | [19] > 100 µM

COC(=O)c1c2c(cc3c1CC1(Cc4cc5c(cc4C1)CCCC5)C3)CCCC2
inactive: [1] > 100 µM | [2] 46.3 µM | [3] > 100 µM | [4] > 100 µM | [5] 15.3 µM | [6] > 100 µM | [7] > 100 µM | [8] > 100 µM | [9] > 100 µM | [10] > 100 µM | [11] > 100 µM | [12] > 100 µM | [13] > 100 µM | [14] > 100 µM | [15] > 100 µM | [16] > 100 µM | [19] > 100 µM

OC(Cc1cccnc1)(c1ccccc1)c1ccccc1
inactive: [1] > 100 µM | [2] > 100 µM | [3] > 100 µM | [4] > 100 µM | [5] > 100 µM | [6] > 100 µM | [7] > 100 µM | [8] > 100 µM | [9] > 100 µM | [10] 72.1 µM | [11] 59.7 µM | [12] 68.1 µM | [14] 57.9 µM | [15] > 100 µM | [16] > 100 µM | [17] > 100 µM | [18] > 100 µM | [19] 32.9 µM
